Assay results reported in patent publication US20050026911A1, “Benzotriazapinone salts and methods for using same” (priority 2003, published 2005).

What follows are molecules tested against T1, gastrin (CCK2) receptors (Rattus norvegicus, UniProt P30553) (assay: gastrin (CCK2) antagonist activity in an immature rat stomach assay). Conditions: pentagastrin dose-response curves, acid secretion, read-out: pKB rat stomach (converted).
T1 construct: The stomach was excised and flushed with ca. 1 ml of unbuffered physiological saline solution; from tissue; host or cells: isolated whole stomach of immature rats (ca. 21 days old)
T1 sequence (P30553 1-452): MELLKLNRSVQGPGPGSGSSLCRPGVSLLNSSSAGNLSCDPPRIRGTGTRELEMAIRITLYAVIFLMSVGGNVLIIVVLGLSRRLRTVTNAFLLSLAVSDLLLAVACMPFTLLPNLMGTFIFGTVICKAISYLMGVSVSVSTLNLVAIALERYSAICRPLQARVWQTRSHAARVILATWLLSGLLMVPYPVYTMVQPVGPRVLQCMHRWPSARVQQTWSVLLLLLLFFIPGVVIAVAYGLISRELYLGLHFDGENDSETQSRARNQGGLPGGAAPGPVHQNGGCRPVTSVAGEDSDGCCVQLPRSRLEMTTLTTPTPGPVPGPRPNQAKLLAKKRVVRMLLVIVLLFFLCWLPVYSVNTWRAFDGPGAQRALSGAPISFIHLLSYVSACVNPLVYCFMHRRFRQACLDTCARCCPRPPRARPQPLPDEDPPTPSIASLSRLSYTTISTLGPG
Description: The compounds of the examples were tested for gastrin (CCK2) antagonist activity in an immature rat stomach assay. The procedure was as follows:
The oesophagus of immature rats (33-50 g, ca. 21 days old) was ligated at the level of the cardiac sphincter and the duodenal sphincter was cannulated. The stomach was excised and flushed with ca. 1 ml of unbuffered physiological saline solution. The fundus was punctured and cannulated. A further 4-5 ml of unbuffered solution was flushed through the stomach to ensure the preparation was not leaking. […] The stomach was continuously perfused at a rate of 1 ml min^−1 with unbuffered solution gassed with 100% O2 with the perfusate passing over an internally referenced pH-electrode fixed 12 cm above the stomach.
After 120 min of stabilisation the drugs were added directly to the serosal solution in the organ bath and after a further 60 min cumulative pentagastrin dose-response curves were started.

Row | Compound | Kb [nM]
1 | CC(C)(C)C(=O)CN1C(=O)N(CC(=O)Nc2cc(C(=O)O)cc(C(=O)O)c2)N=C(C2CCCCC2)c2ccccc21 [Example 39, 5-{2-[5-Cyclohexyl-1-(3,3-dimethyl-2-oxo-butyl)-2-oxo-1,2-dihydro-3H-1,3,4-benzotriazepin-3-yl]-acetylamino}-isophthalic acid] | 7.59
2 | CC(C)(C)C(=O)CN1C(=O)N(CC(=O)Nc2cccc(C(=O)NS(C)(=O)=O)c2)N=C(C2CCCCC2)c2ccccc21 [Example 40] | 22.9
3 | CCOCCNc1cccc(NC(=O)CN2N=C(C3CCCCC3)c3ccccc3N(CC(=O)C(C)(C)C)C2=O)c1 [Example 42, 2-[5-Cyclohexyl-1-(3,3-dimethyl-2-oxo-butyl)-2-oxo-1,2-dihydro-3H-1,3,4-benzotriazepin-3-yl]-N-[3-(2-ethoxy-ethylamino)-phenyl)-acetamide] | 105
4 | CC(C)(C)C(=O)CN1C(=O)N(CC(=O)NCc2cccc(C(=O)O)c2)N=C(C2CCCCC2)c2ccccc21 [Example 45, 3-({2-[5-Cyclohexyl-1-(3,3-dimethyl-2-oxo-butyl)-2-oxo-1,2-dihydro-3H-1,3,4-benzotriazepin-3-yl]-acetylamino}-methyl)-benzoic acid] | 93.3
5 | Cc1cccc(NNC(=O)CN2N=C(C3CCCCC3)c3ccccc3N(CC(=O)C(C)(C)C)C2=O)c1 [Example 46, [5-Cyclohexyl-1-(3,3-dimethyl-2-oxo-butyl)-2-oxo-1,2-dihydro-3H-1,3,4-benzotriazepin-3-yl]-acetic acid N′-m-tolyl-hydrazide] | 174
6 | CC(C)(C)C(=O)CN1C(=O)N(CC(=O)Nc2cccc(CSC(=N)N)c2)N=C(C2CCCCC2)c2ccccc21 [Example 49, N-(3-Carbamimidoylsulfanylmethyl-phenyl)-2-[5-cyclohexyl-1-(3,3-dimethyl-2-oxo-butyl)-2-oxo-1,2-dihydro-3H-1,3,4-benzotriazepin-3-yl]-acetamide] | 100
7 | CC(C)(C)C(=O)CN1C(=O)N(CC(=O)Nc2cccc(S(=O)(=O)CC(=O)O)c2)N=C(C2CCCCC2)c2ccccc21 [Example 50] | 11
8 | CC(C)(C)C(=O)CN1C(=O)N(CC(=O)Nc2cccc(NCC(=O)O)c2)N=C(C2CCCCC2)c2ccccc21 [Example 52] | 32.4
9 | CC(C)(C)C(=O)CN1C(=O)N(CC(=O)Nc2cccc(C(=O)O)c2)N=C(C23CC4CC(CC(C4)C2)C3)c2ccccc21 [Example 54, 3-{2-[5-Adamantan-1-yl-1-(3,3-dimethyl-2-oxo-butyl)2-oxo-1,2-dihydro-3H-1,3,4-benzotriazepin-3-yl]-acetylamino}-benzoic acid] | 17
10 | CNc1cccc(NC(=O)CN2N=C(C3CCCCC3)c3ccccc3N(CC(=O)C3CCCC3)C2=O)c1 [Example 57, 2-[5-Cyclohexyl-1-(2-cyclopentyl-2-oxo-ethyl)-2-oxo-1,2-dihydro-3H-1,3,4-benzotriazepin-3-yl]-N-(3-methylaminophenyl)-acetamide] | 1.17
11 | CC(C)(C)C(=O)CN1C(=O)N(CC(=O)Nc2cccc(/C=C/C(=O)O)c2)N=C(C2CCCCC2)c2ccccc21 [Example 60, 3-(3-{2-[5-Cyclohexyl-1-(3,3-dimethyl-2-oxo-butyl)-2-oxo-1,2-dihydro-3H-1,3,4-benzotriazepin-3-yl]-acetylamino}-phenyl)-acrylic acid] | 3.47
12 | CC(C)(C)C(=O)CN1C(=O)N(CC(=O)Nc2cccc(CCC(=O)O)c2)N=C(C2CCCCC2)c2ccccc21 [Example 61, 3-(3-{2-[5-Cyclohexyl-1-(3,3-dimethyl-2-oxo-butyl)-2-oxo-1,2-dihydro-3H-1,3,4-benzotriazepin-3-yl]-acetylamino}-phenyl)-propionic acid] | 4.47
13 | CC(C)(C)C(=O)CN1C(=O)N(CC(=O)Nc2ccccn2)N=C(C2CCCCC2)c2ccccc21 [Example 63, 2-[5-Cyclohexyl-1-(3,3-dimethyl-2-oxo-butyl)-2-oxo-1,2-dihydro-3H-1,3,4-benzotriazepin-3-yl]-N-pyridin-2-yl-acetamide] | 661
14 | CC(=O)N(CC(=O)O)c1cccc(NC(=O)CN2N=C(C3CCCCC3)c3ccccc3N(CC(=O)C(C)(C)C)C2=O)c1 [Example 65, [Acetyl-(3-{2-[5-cyclohexyl-1-(3,3-dimethyl-2-oxo-butyl)-2-oxo-1,2-dihydro-3H-1,3,4-benzotriazepin-3-yl]-acetylamino}-phenyl)-amino]-acetic acid] | 52.5
15 | CC(C)(C)C(=O)CN1C(=O)N(CC(=O)Nc2cccc(NC(=O)CCC(=O)O)c2)N=C(C2CCCCC2)c2ccccc21 [Example 66, N-(3-{2-[5-Cyclohexyl-1-(3,3-dimethyl-2-oxo-butyl)-2-oxo-1,2-dihydro-3H-1,3,4-benzotriazepin-3-yl]-acetylamino}-phenyl)-succinamic acid] | 74.1
16 | CC(C)(C)C(=O)CN1C(=O)N(CC(=O)Nc2cccc(Cc3nnn[nH]3)c2)N=C(C2CCCCC2)c2ccccc21 [Example 67, 2-[5-Cyclohexyl-1-(3,3-dimethyl-2-oxo-butyl)-2-oxo-1,2-dihydro-3H-1,3,4-benzotriazepin-3-yl]-N-[3-(1H-tetrazol-5-ylmethyl)-phenyl]-acetamide] | 77.6
17 | O=C(CN1N=C(C2CCCCC2)c2ccccc2N(CC(=O)N2CCOCC2)C1=O)Nc1cccc(C(=O)O)c1 [Example 68, 3-{2-[5-Cyclohexyl-1-(2-morpholin-4-yl-2-oxo-ethyl)-2-oxo-1,2-dihydro-3H-1,3,4-benzotriazepin-3-yl]-acetylamino}-benzoic acid] | 81.3
18 | CC(C)(C)C(=O)CN1C(=O)N(CC(=O)Nc2ccc3ccn(CC(=O)O)c3c2)N=C(C2CCCCC2)c2ccccc21 [Example 70, (6-{2-[5-Cyclohexyl-1-(3,3-dimethyl-2-oxo-butyl)-2-oxo-1,2-dihydro-3H-1,3,4-benzotriazepin-3-yl]-acetylamino}-indol-1-yl)-acetic acid] | 0.851
19 | CC(C)(C)C(=O)CN1C(=O)N(CC(=O)Nc2cccc(CSCC(=O)O)c2)N=C(C2CCCCC2)c2ccccc21 [Example 71, (3-{2-[5-Cyclohexyl-1-(3,3-dimethyl-2-oxo-butyl)-2-oxo-1,2-dihydro-3H-1,3,4-benzotriazepin-3-yl]-acetylamino}-benzylsulfanyl)-acetic acid] | 3.8
20 | CNc1cccc(NC(=O)CN2N=C(C3CCCCC3)c3ccccc3N(CC(=O)N3CCN(C)CC3)C2=O)c1 [Example 72, 2-{5-Cyclohexyl-1-[2-(4-methyl-piperazin-1-yl)-2-oxo-ethyl]-2-oxo-1,2-dihydro-3H-1,3,4-benzotriazepin-3-yl}-N-(3-methylamino-phenyl)-acetamide] | 263
21 | CNc1cc(NC(=O)CN2N=C(C3CCCCC3)c3ccccc3N(CC(=O)C(C)(C)C)C2=O)cc(C(=O)O)c1 [Example 73, 3-{2-[5-Cyclohexyl-1-(3,3-dimethyl-2-oxo-butyl)-2-oxo-1,2-dihydro-3H-1,3,4-benzotriazepin-3-yl]-acetylamino}-5-methylamino-benzoic acid] | 67.6
22 | CNc1cc(NC(=O)CN2N=C(C3CCCCC3)c3ccccc3N(CC(=O)C(C)(C)C)C2=O)cc(C(=O)OC)c1 [Example 74, 3-{2-[5-Cyclohexyl-1-(3,3-dimethyl-2-oxo-butyl)-2-oxo-1,2-dihydro-3H-1,3,4-benzotriazepin-3-yl]-acetylamino}-5-methylamino-benzoic acid methyl ester] | 372
